Assay results from patent publication US9734283B2, “Genomic features associated with epigenetic control regions and transgenerational inheritance of epimutations” (priority 2011, dated 2017).

Assays:
CD-1 and 129 strain mice = test: Transgenerational pathology analysis of adult onset disease (testis, prostate, kidney); type: in vivo, mouse
Protocol: The experimental design involved exposing gestating female inbred 129 strain and outbred CD-1 strain mice to daily intraperitoneal (IP) injections of vehicle (DMSO) (control) or vinclozolin at two doses, 100 mg/kg/day (V1) or 200 mg/kg/day (V2), between embryonic day 7-13 of gestation. In addition, a comparison was used with flutamide IP injections at a 20/mg/kg/day dose. The F1 generation males and females from different litters were bred to generate the F2 generation animals and F2 generation males and females from different litters were bred to generate the F3 generation animals, see Methods below. No sibling or cousin breedings occurred to avoid any inbreeding artifacts. Selected F1, F2 and F3 generation animals from postnatal 90 (P90) or 300 (P300) days of age were analyzed for testis, sperm and other pathologies as previously described.^11, 20, 21
Timed pregnant inbred 129 mice were given intraperitoneal injections with vinclozolin (100 mg/kg·day, 99% pure; ChemService, West Chester, Pa.), flutamide (20 mg/kg·day, Sigma, St. Louis, Mo.) or DMSO in sesame oil (vehicle) as controls, while timed pregnant outbred CD-1 mice were given intraperitoneal injections (IP) with vinclozolin doses: 100 mg/kg·day (V1) or 200 mg/kg·day (V2) or DMSO in sesame oil as controls.^21 Mice were given injections from embryonic day (E) E7-E13, with plug date equal to day 0. Controls were injected with vehicle (DMSO) dose and were matched with vinclozolin or flutamide treatment animals within the same mouse strain at the time of injection and were analyzed together throughout all three generations. The number of treated gestating females used were: for mouse 129 strain (3 controls and 4 vinclozolin treated); for mouse 129 strain flutamide 20 mg/kg/day dose (3 controls and 3 flutamide treated); and for mouse CD-1 strain (4 control and 3 vinclozolin treated (100 mg/kg/day (V1), 3 vinclozolin 200 mg/kg/day (V2)). F1 postnatal (P)P90 males and females from different litters of control, vinclozolin and flutamide treatment groups were bred to generate the F2 generation. F2 generation mice were bred to generate the F3 generation. Breedings were carefully monitored to eliminate any sibling or cousin breeding to remove potential phenotypes as a result of inbreeding. Male mice were collected and analyzed between P60-P90 (P90) for all generations and treatment groups. The number of P90 males collected for replicates for the mouse 129 strain vinclozolin treatment group (i.e. n value) were: for F1 (8 control, 11 vinclozolin); for F2 (11 control, 22 vinclozolin); and for F3 (11 control, 11 vinclozolin). […]

caudal epididymal sperm = test: Epididymal sperm motility and concentration analyses; type: in vivo, mouse
Protocol: The sperm motility was determined using caudal epididymal sperm. The epididymis was dissected free of connective tissue and a small cut made to the cauda. The tissue was placed in 2 ml F12 culture medium containing 0.1% BSA for 10 minutes at 37° C. Fifty microliters was placed on a warm slide and gently cover-slipped. The specimen was immediately examined using phase contrast microscopy with 200×magnification. The sperm motility assays examined rapid progressive, slow progressive and non-progressive motility according to WHO category.^51 The ratio of motile sperm to the total number of sperm, including immotile sperm, was calculated. Approximately 50-100 sperm were counted per microscopic field. The procedure was repeated at least twice with a new specimen from the same epididymis. Epididymal sperm count was determined using the same epididymis according to a previously described method with some modifications.^25, 52 Briefly, the epididymis that was placed in the 2 ml of culture medium was minced. The tissue pieces were stored at 4° C. for 48 hours to immobilize the sperm. Three independent sperm samples were counted using a hemocytometer. The counts were averaged and used as a replicate in statistical analysis. The control and vinclozolin generation analysis and the control and flutamide generation analysis for an individual experiment were done at the same time. All analyses were done blinded, such that different individuals were used for collection and counting.

[1] = F3 generation vinclozolin lineage CD-1 mice, P300, p<0.02 vs controls

C=CC1(C)OC(=O)N(c2cc(Cl)cc(Cl)c2)C1=O (racemic) [vinclozolin, (RS)-3-(3,5-dichlorophenyl)-5-methyl-5-vinyl-1,3-oxazolidine-2,4-dione]
animals that developed at least one disease (CD-1 and 129 strain mice; [1]): 75%
animals with two or more disease states (CD-1 and 129 strain mice; [1]): 34%
proportion of mice exhibiting abnormal disease-like characteristics in testis, prostate, and kidney tissues (CD-1 and 129 strain mice; aged (P300) F3 generation CD-1 strain, vinclozolin lineage vs control): increases
adult onset disease of the prostate, kidney, testis or ovaries (CD-1 and 129 strain mice; inbred 129 strain mice, between treatment groups): no observable differences
mean epididymal sperm concentration (caudal epididymal sperm; primarily F1 generation, not observed in 129 strain F2 or F3): reduction
mean percentage of motile epididymal sperm (caudal epididymal sperm; primarily in the F1 generation males): reduction
